{
  "source": "patent US9339463B2",
  "about": "“Micronized opioid compositions having a specific particle size distribution” (priority 2007, dated 2016)",
  "type_in_all_cases": "physicochemical",
  "key": {"[1]": {"assay": "Particle size by optical microscopy, number % undersize", "details": "mean diameter", "protocol": "(§1) As a secondary analytical method, the micronized and the non-micronized oxycodone analyzed by laser diffraction with results shown in Table 1, were analyzed by optical microscopy to evaluate particle size and the results are shown in Table 2. Sample aliquots (˜50 mg for micronized and ˜225 mg for non-micronized) were dispersed in 10 ml of sunflower oil and viewed on a Nikon microscope equipped with a 10× objective. Particle size (mean diameter) was determined using Image Pro® Plus software and expressed as a number % undersize. The particle size values determined by optical microscopy as shown in Table 2 are consistent with the laser diffraction particle size data shown in Table 1."}, "[2]": {"assay": "Chemical stability on storage: assay and impurities", "protocol": "(§2) Samples of Example 2 and additional samples comprising micronized and non-micronized oxycodone useful for exemplary dosage forms are tested for their chemical stability and physical stability. Based on a comparison of stability data from micronized and non-micronized samples stored at both 25° C./60% RH and 40 C.°/75% RH, no differences are observed in the impurity profile through three months of study as shown in Tables 4 and 5 for exemplary lots. The impurities analyzed include (HOXY), 14-Hydroxycodeinone; (DHOXYN), 7,8-Dihydro-8,14-Dihydroxycodeinone; (DHOXY), 7,8-Dihydro-14-hydroxycodeine; (OXYE), Oxycodone ethylenolate; (OXYN), 1-Hydroxyoxycodone and Oxycodone N-oxide. Most of the impurities are found to be below the limit of quantitation (LOQ), except for HOXY and DHOXYN which were unchanged at 0.1%. […] The solid state stability of the micronized oxycodone is monitored for particle size, XRPD, DSC, and microscopy as shown in Table 6."}, "[3]": {"assay": "Physical stability on storage: DSC onset melt", "protocol": "The micronized lots may also be analyzed by Differential Scanning Calorimetry (DSC). DSC is performed on a TA instrument Q100 using a heating ramp from 25-235° C. at a rate of 5° C./min. […] The sharp endotherm observed is consistent with a crystalline material and the absence of other thermal events proves that there were no polymorph transformations during melting.\nas §2"}, "[4]": {"assay": "Particle size distribution by laser diffraction (Malvern Mastersizer 2000), oxycodone base"}, "[5]": {"assay": "Physical stability on storage: particle size (Dv90) by laser diffraction"}, "[6]": {"assay": "Physical stability on storage: microscopy", "protocol": "as §1, §2"}, "[7]": {"details": "Table 1 analysis, lot 2 in duplicate"}, "[8]": {"details": "additional laser diffraction analysis, Table 3"}},
  "note": "Where “and” joins values, the source holds several entries; their conditions need not be identical. Identical values can stand only once.",
  "data": [
    {"smiles": "COc1ccc2c3c1O[C@H]1C(=O)CC[C@@]4(O)[C@@H](C2)N(C)CC[C@]314", "note": "[Lot 2, oxycodone]", "values": [
      {"measurement": "% ≦ 1μ", "setting": "[1]", "result": 25.3, "unit": "%"},
      {"measurement": "% ≦ 5μ", "setting": "[1]", "result": 92.2, "unit": "%"},
      {"measurement": "% ≦ 10μ", "setting": "[1]", "result": 99.5, "unit": "%"},
      {"measurement": "1-HydroxyOXY", "setting": "[2]; 5° C./60% RH, 1 mo (Table 4)", "result": "<LOQ"},
      {"measurement": "1-HydroxyOXY", "setting": "[2]; 5° C./60% RH, 3 mo (Table 4)", "result": "<LOQ"},
      {"measurement": "Assay", "setting": "[2]; 25° C./60% RH, 1 mo", "result": 99.8, "unit": "%"},
      {"measurement": "DHOXY (7,8-Dihydro-14-hydroxycodeine)", "setting": "[2]; 25° C./60% RH, 1 mo", "result": "<LOQ"},
      {"measurement": "DHOXYN (7,8-Dihydro-8,14-Dihydroxycodeinone)", "setting": "[2]; 25° C./60% RH, 1 mo", "result": 0.10, "unit": "%"},
      {"measurement": "HOXY (14-Hydroxycodeinone)", "setting": "[2]; 25° C./60% RH, 1 mo", "result": 0.08, "unit": "%"},
      {"measurement": "OXYE (Oxycodone ethylenolate)", "setting": "[2]; 25° C./60% RH, 1 mo", "result": "<LOQ"},
      {"measurement": "OXYN", "setting": "[2]; 25° C./60% RH, 1 mo", "result": "<LOQ"},
      {"measurement": "Other (impurities; Table 5: >0.05%)", "setting": "[2]; 25° C./60% RH, 1 mo", "result": "<LOQ"},
      {"measurement": "Total impurities", "setting": "[2]; 25° C./60% RH, 1 mo", "result": 0.18, "unit": "%"},
      {"measurement": "Assay", "setting": "[2]; 25° C./60% RH, 3 mo", "result": 99.8, "unit": "%"},
      {"measurement": "DHOXY (7,8-Dihydro-14-hydroxycodeine)", "setting": "[2]; 25° C./60% RH, 3 mo", "result": "<LOQ"},
      {"measurement": "DHOXYN (7,8-Dihydro-8,14-Dihydroxycodeinone)", "setting": "[2]; 25° C./60% RH, 3 mo", "result": 0.10, "unit": "%"},
      {"measurement": "HOXY (14-Hydroxycodeinone)", "setting": "[2]; 25° C./60% RH, 3 mo", "result": 0.08, "unit": "%"},
      {"measurement": "OXYE (Oxycodone ethylenolate)", "setting": "[2]; 25° C./60% RH, 3 mo", "result": "<LOQ"},
      {"measurement": "OXYN", "setting": "[2]; 25° C./60% RH, 3 mo", "result": "<LOQ"},
      {"measurement": "Other (impurities; Table 5: >0.05%)", "setting": "[2]; 25° C./60% RH, 3 mo", "result": "<LOQ"},
      {"measurement": "Total impurities", "setting": "[2]; 25° C./60% RH, 3 mo", "result": 0.18, "unit": "%"},
      {"measurement": "1-HydroxyOXY", "setting": "[2]; 40° C./75% RH, 1 mo", "result": "<LOQ"},
      {"measurement": "Assay", "setting": "[2]; 40° C./75% RH, 1 mo", "result": 99.6, "unit": "%"},
      {"measurement": "DHOXY (7,8-Dihydro-14-hydroxycodeine)", "setting": "[2]; 40° C./75% RH, 1 mo", "result": "<LOQ"},
      {"measurement": "DHOXYN (7,8-Dihydro-8,14-Dihydroxycodeinone)", "setting": "[2]; 40° C./75% RH, 1 mo", "result": 0.10, "unit": "%"},
      {"measurement": "HOXY (14-Hydroxycodeinone)", "setting": "[2]; 40° C./75% RH, 1 mo", "result": 0.08, "unit": "%"},
      {"measurement": "OXYE (Oxycodone ethylenolate)", "setting": "[2]; 40° C./75% RH, 1 mo", "result": "<LOQ"},
      {"measurement": "OXYN", "setting": "[2]; 40° C./75% RH, 1 mo", "result": "<LOQ"},
      {"measurement": "Other (impurities; Table 5: >0.05%)", "setting": "[2]; 40° C./75% RH, 1 mo", "result": "<LOQ"},
      {"measurement": "Total impurities", "setting": "[2]; 40° C./75% RH, 1 mo", "result": 0.18, "unit": "%"},
      {"measurement": "1-HydroxyOXY", "setting": "[2]; 40° C./75% RH, 3 mo", "result": "<LOQ"},
      {"measurement": "Assay", "setting": "[2]; 40° C./75% RH, 3 mo", "result": 99.2, "unit": "%"},
      {"measurement": "DHOXY (7,8-Dihydro-14-hydroxycodeine)", "setting": "[2]; 40° C./75% RH, 3 mo", "result": "<LOQ"},
      {"measurement": "DHOXYN (7,8-Dihydro-8,14-Dihydroxycodeinone)", "setting": "[2]; 40° C./75% RH, 3 mo", "result": 0.10, "unit": "%"},
      {"measurement": "HOXY (14-Hydroxycodeinone)", "setting": "[2]; 40° C./75% RH, 3 mo", "result": 0.08, "unit": "%"},
      {"measurement": "OXYE (Oxycodone ethylenolate)", "setting": "[2]; 40° C./75% RH, 3 mo", "result": "<LOQ"},
      {"measurement": "OXYN", "setting": "[2]; 40° C./75% RH, 3 mo", "result": "<LOQ"},
      {"measurement": "Other (impurities; Table 5: >0.05%)", "setting": "[2]; 40° C./75% RH, 3 mo", "result": "<LOQ"},
      {"measurement": "Total impurities", "setting": "[2]; 40° C./75% RH, 3 mo", "result": 0.18, "unit": "%"},
      {"measurement": "1-HydroxyOXY", "setting": "[2]; Time 0", "result": "<LOQ"},
      {"measurement": "Assay", "setting": "[2]; Time 0", "result": 100.7, "unit": "%"},
      {"measurement": "DHOXY (7,8-Dihydro-14-hydroxycodeine)", "setting": "[2]; Time 0", "result": "<LOQ"},
      {"measurement": "DHOXYN (7,8-Dihydro-8,14-Dihydroxycodeinone)", "setting": "[2]; Time 0", "result": 0.10, "unit": "%"},
      {"measurement": "HOXY (14-Hydroxycodeinone)", "setting": "[2]; Time 0", "result": 0.08, "unit": "%"},
      {"measurement": "OXYE (Oxycodone ethylenolate)", "setting": "[2]; Time 0", "result": "<LOQ"},
      {"measurement": "OXYN", "setting": "[2]; Time 0", "result": "<LOQ"},
      {"measurement": "Other (impurities; Table 5: >0.05%)", "setting": "[2]; Time 0", "result": "<LOQ"},
      {"measurement": "Total impurities", "setting": "[2]; Time 0", "result": 0.18, "unit": "%"},
      {"measurement": "DSC Onset Melt", "setting": "[3]; 25° C./60% RH, 3 mo", "result": 221.8, "unit": "°C"},
      {"measurement": "DSC Onset Melt", "setting": "[3]; 40° C./75% RH, 3 mo", "result": 221.9, "unit": "°C"},
      {"measurement": "DSC Onset Melt", "setting": "[3]; Time 0", "result": 221.8, "unit": "°C"},
      {"measurement": "Particle size (Dv10)", "setting": "[4]; [7]", "result": "0.5, 0.5 μ"},
      {"measurement": "Particle size (Dv50)", "setting": "[4]; [7]", "result": "1.5 μ and 2.2 μ"},
      {"measurement": "Particle size (Dv90)", "setting": "[4]; [7]", "result": "3.1 μ and 5.1 μ"},
      {"measurement": "Particle size (Dv10)", "setting": "[4]; [8]", "result": 0.6, "unit": "μ"},
      {"measurement": "Particle size (Dv50)", "setting": "[4]; [8]", "result": 2.1, "unit": "μ"},
      {"measurement": "Particle size (Dv90)", "setting": "[4]; [8]", "result": 5.8, "unit": "μ"},
      {"measurement": "Particle size (Dv90)", "setting": "[5]; 25° C./60% RH, 3 months", "result": 10, "unit": "μ"},
      {"measurement": "Particle size (Dv90)", "setting": "[5]; 40° C./75% RH, 3 months", "result": 10, "unit": "μ"},
      {"measurement": "Particle size (Dv90)", "setting": "[5]; Time 0", "result": 4, "unit": "μ"},
      {"measurement": "Microscopy, ≦10 μ", "setting": "[6]; 25° C./60% RH, 3 mo", "result": 99.5, "unit": "%"},
      {"measurement": "Microscopy, ≦10 μ", "setting": "[6]; 40° C./75% RH, 3 mo", "result": 98.3, "unit": "%"},
      {"measurement": "Microscopy, ≦10 μ", "setting": "[6]; Time 0", "result": 99.5, "unit": "%"}
    ]}
  ]
}
